The target in assay [1] is T1, NPR-B receptor (Mus musculus, UniProt Q6VVW5).
T1 construct: These cells express endogenously the NPR-B receptor on the cell surface; endogenous in cells; host or cells: NIH-3T3 (murine embryo fibroblast)
T1 sequence (Q6VVW5 23-1047 limits assumed): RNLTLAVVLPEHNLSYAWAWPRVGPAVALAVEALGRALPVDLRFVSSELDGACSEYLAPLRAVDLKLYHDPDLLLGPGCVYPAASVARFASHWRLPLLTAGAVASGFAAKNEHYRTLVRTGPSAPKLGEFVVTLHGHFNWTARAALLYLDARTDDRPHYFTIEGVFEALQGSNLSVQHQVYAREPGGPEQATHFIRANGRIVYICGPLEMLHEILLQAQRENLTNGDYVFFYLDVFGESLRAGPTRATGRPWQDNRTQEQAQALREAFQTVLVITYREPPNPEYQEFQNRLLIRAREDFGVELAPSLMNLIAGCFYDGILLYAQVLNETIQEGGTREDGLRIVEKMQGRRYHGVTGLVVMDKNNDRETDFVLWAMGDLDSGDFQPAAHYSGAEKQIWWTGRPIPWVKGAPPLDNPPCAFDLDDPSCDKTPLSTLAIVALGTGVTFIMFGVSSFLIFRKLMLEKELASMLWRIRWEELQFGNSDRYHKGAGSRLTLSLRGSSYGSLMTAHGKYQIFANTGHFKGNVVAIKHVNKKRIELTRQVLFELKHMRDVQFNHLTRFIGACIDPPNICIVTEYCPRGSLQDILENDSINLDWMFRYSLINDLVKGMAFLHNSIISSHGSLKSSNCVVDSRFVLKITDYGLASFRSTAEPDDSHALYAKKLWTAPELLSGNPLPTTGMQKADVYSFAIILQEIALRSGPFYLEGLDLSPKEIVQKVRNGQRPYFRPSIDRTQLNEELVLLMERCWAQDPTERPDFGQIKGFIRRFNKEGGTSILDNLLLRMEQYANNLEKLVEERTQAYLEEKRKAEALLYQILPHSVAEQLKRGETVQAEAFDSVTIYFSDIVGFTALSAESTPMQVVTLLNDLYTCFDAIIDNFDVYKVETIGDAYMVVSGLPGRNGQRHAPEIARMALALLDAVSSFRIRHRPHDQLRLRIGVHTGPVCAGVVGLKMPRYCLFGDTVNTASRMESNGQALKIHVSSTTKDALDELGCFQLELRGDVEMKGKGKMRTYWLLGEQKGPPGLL
Put plainly: Functional cGMP stimulation in NIH-3T3 cells with CNP variants. The format is cell-based, murine. To be noted: residual NPR-B activity vs non-PEGylated CNP-38, cGMP. The procedure:
As used herein “EC50” with regard to controlled-release CNP agonist and CNP agonist refers to the concentration of controlled-release CNP agonist and CNP agonist with which a half-maximum cGMP production of NPR-B is elicited. NPR-B activity in the form of its EC50 of the controlled-release CNP agonist, of the released CNP agonist and of CNP-22 is measured by cultivating NIH-3T3 (Murine Embryo Fibroblast cell line) cells which express NPR-B on their cell surface, incubating the cells with the controlled-release CNP agonist, the corresponding released CNP agonist or CNP-22, respectively, and determining the intracellular production of the second messenger cGMP with a standard cGMP assay. In particular the assay is performed as follows: • (1) murine NIH-3T3 cells expressing endogenous NPR-B are cultivated in DMEM F-12 medium with 5% FBS and 5 mM glutamine at 37° C. and 5% CO2; • (2) for each assay 50,000 cells are resuspended in Dulbecco's PBS with IBMX and incubated with either the controlled-release CNP agonist, the corresponding released CNP agonist or CNP-22; each in different concentrations; • (3) after incubating for 30 min at 37° C. and 5% CO2, the cells are lysed and cGMP levels are determined; and • (4) generating an EC50 value from the determined cGMP levels.
Functional activity of CNP variants were determined in a cell-based assay with NIH-3T3 cells (Murine Embryo Fibroblast cell line). These cells express endogenously the NPR-B receptor on the cell surface. Stimulation of the NPR-B receptor with CNP leads to intracellular production of the second messenger cGMP which is detected with a commercially available cGMP assay. NIH-3T3 cells were routinely cultured in DMEM F-12 medium with 5% FBS and 5 mM glutamine at 37° C. and 5% CO2. For each assay, 50,000 cells were resuspended in stimulation buffer (Dulbecco's PBS with IBMX) and incubated with the CNP variants in different concentrations. CNP (dilutions were made in PBS with 0.2% BSA). After incubation of 30 min at 37° C. and 5% CO2, the cells were lyzed and cGMP levels were determined with a commercially available cGMP TR-FRET assay (Cisbio, cGMP kit, Cat. No. 62GM2PEB). PEGylated CNP variants were always characterized in comparison with the non-PEGylated version in the same experiment batch. If possible, evaluation of the residual activity was done via the relative EC50-parameter of the resulting dose-response curve (restricted model with common slope).
11i was incubated under physiological conditions (1 mg CNP-38 eq/mL), as described in Example 20. After 7 d, released CNP-38 was isolated by RP-HPLC and analyzed for bioactivity as described in Example 21.

For assay [2], the target named is T2, NPR-C (Homo sapiens, UniProt P17342).
T2 construct: expressed in transfected cells; host or cells: Hek293, lentiviral transduction, CMV promoter, puromycin selection
T2 sequence (P17342 27-541): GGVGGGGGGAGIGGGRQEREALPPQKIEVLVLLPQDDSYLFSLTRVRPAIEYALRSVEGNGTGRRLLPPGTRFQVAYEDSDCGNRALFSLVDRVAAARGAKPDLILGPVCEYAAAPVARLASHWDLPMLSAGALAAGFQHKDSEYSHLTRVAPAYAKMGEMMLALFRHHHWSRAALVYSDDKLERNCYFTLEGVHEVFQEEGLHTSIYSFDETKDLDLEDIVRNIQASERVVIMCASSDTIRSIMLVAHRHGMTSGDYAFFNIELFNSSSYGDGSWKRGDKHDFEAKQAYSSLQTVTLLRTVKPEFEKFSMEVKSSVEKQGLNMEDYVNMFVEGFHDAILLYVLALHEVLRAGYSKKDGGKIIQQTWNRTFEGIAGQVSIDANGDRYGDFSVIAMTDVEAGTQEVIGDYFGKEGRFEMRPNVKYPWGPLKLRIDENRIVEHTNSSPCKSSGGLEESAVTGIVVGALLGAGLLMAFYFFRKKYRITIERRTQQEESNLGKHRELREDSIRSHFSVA
As to the kind of experiment: NPR-C affinity assay. To be noted: residual NPR-C affinity, NPR-C expressing Hek293 cells, competition with fluorescein-labelled CNP 27d. The format is binding.

In the case of “Permanent Lys26 CNP-38 PEG4×10 kDa Conjugate [Compound 12g]”, the “EC50 compound/EC50 CNP-38” value in assay [1] is >>100. Also, in assay [2], the “IC50 of PEGylated CNP-38/IC50 CNP-38” value is recorded as 143.
“Reversible Lys26 CNP-38 PEG2×20 kDa Conjugate [Compound 10f]”: the “EC50 compound/EC50 CNP-38” value in assay [1] is reported as >>100. The “IC50 of PEGylated CNP-38/IC50 CNP-38” value in assay [2] was 12.
